Data on ten compounds can be found in US4260761A, “Intermediates for the preparation of octahydro-1H-benzo[4,5]furo[3,2,-e]-isoquinoline analgesic and narcotic antagonistic compounds” (priority 1980, dated 1981).

The test system of data set [1] is phenylquinone-induced writhing. Briefly: Phenylquinone writhing (PQW) analgesic test, oral, mice. As to conditions: for EFFECT ED50, Oral Anti-PQW: mice, phenylquinone writhing. Format: in vivo, mice (female white). How it is done: A standard procedure for detecting and comparing the analgesic activity of compounds in this series for which there is good correlation with human efficacy is the standard phenylquinone writhing test modified from Siegmund, et al., Proc. Soc. Exp. Biol. Med., 95, 729 (1957). A test compound suspended in 1% methocel® was given orally to fasted (17-21 hours) female white mice, 5-20 animals per double blind test. Aqueous (0.01% phenyl-p-benzoquinone) phenylquinone was injected intraperitoneally at 24 minutes later using 0.20 ml per mouse. […] The effective analgesic dose for 50% of the mice (ED50) was calculated by the moving average method of Thompson, W. R., Bact. Rev., 11, 115-145 (1947).
(§1) Most of the compounds were analgetic in the mouse antiphenylquinone test system and only a few caused Straub tail. Most also were antagonists in the mouse anti-Straub tail test.
(§2) On the other hand, the very high Straub tail ED50 's indicate that most of the compounds of the invention have very low likelihood of being addictive. […] Thus, the compounds of the invention are characterized by rapid onset of action, high oral potency and the ability to alleviate deepseated pain. Furthermore, abuse liability for most of the compounds should be extremely low or non-existent.
Background: In writhing tests, fewer writhes than in controls are read as antinociception.

The subject of the next data set is Straub tail. Kind of data set: Straub tail test (narcotic agonist effect), oral, mice. As to conditions: tail erected 90° or more within 24 minutes. Format: in vivo, mice (CF1 S female). How it is done:
Narcotic analgesics produce in mice an erection and arching of the tail (90° or more) which is referable to spinal cord stimulation. This Straub tail reaction is not produced by other analgesics, including the narcotic antagonists.
The method used was modified from Shemano, I., and Wendel, H., Tox. Appl. Pharm., 6, 334-9 (1964). CF1 S female mice (18-21 g), 10-20 mice per dose, were intubated with log scaled doses of analgesic in 1% aqueous methylcellulose. A positive Straub tail response was recorded if a tail was erected 90° or more for 5 seconds at any time within 24 minutes after dosing. A quantal Straub tail ED50 was calculated by the moving average method [Thompson, W. R., Bact. Rev., 11, 115-145 (1947)].
as §1, §2

In data set [2] the test system is morphine-induced Straub tail. Briefly: Anti-Straub tail test (antagonism of morphine-induced Straub tail), mice. In kind it is in vivo, mice (female CF1 S). As to the method: This property is the basis of a mouse test for narcotic antagonists.
Female CF1 S mice (fasted 17-21 hrs.), 5 per dose, were injected orally or subcutaneously with test drug at 0.67, 2, 6, 18, 54 and 162 mg/kg or other appropriate doses in 0.20 ml 1% Methocel® per mouse. Five minutes later, 30 mg/kg of morphine sulfate in 0.20 ml 1% Methocel® per mouse was given intraperitoneally starting ten minutes later, the mice were observed continuously for 5 minutes for evidence of Straub tail. Prevention of a 90° Straub tail during this observation period was taken as indication of narcotic antagonist ability.
as §1, §2

The next data set concerns opiate analgesics. As to conditions: background; cited from earlier work.
Data set [3] relates to morphine-induced Straub tail. To be noted: mice; Blumberg et al. 1968; cited from earlier work.
For data set [4] the following is noted: Lasagna and Beecher 1954; cited from earlier work.
The conditions of data set [5]: background; cited from earlier work.

Regarding `CN1CC[C@]23c4c5ccc(O)c4O[C@H]2[C@@H](O)C=C[C@H]3[C@H]1C5` [Morphine], in data set [1], the “EFFECT ED50, Oral Anti-PQW” value came to 3.0. In the data set with Straub tail, the “EFFECT ED50, Oral Straub-Tail” value was determined as 48.

`CN1CCC23c4cccc(O)c4OC2CCCC3C1` (single isomer, unassigned) [Example 3 (+)isomer]: the “EFFECT ED50, Oral Anti-PQW” value in data set [1] (listed as 3 (+)isomer) is 61. Besides, the “EFFECT ED50, Anti-Straub Tail (s.c.)” value in data set [2] (subcutaneous, mice, vs morphine sulfate 30 mg/kg i.p., listed as 3 (+)isomer) is given as 3.3. Moreover, in the data set on Straub tail, the “EFFECT ED50, Oral Straub-Tail” value is on record as above 135.

`C=CCN1CC[C@]23c4c5ccc(O)c4O[C@H]2C(=O)CC[C@@]3(O)[C@H]1C5` [naloxone]: in the data set on opiate analgesics, the “antagonism of emetic effect of meperidine” value is on record as “antagonizes the emetic effect of meperidine” and the “antagonism of opiate analgesics” value is recorded as “effectively antagonize overdoses of the opiate analgesics”. Moreover, in data set [3], the “prevention of morphine-induced Straub tail” value is listed as “prevent the induction of Straub tail in mice”.

For `C=CCN1CC[C@]23c4c5ccc(O)c4O[C@H]2[C@@H](O)C=C[C@H]3[C@H]1C5` [nalorphine], the “antagonism of opiate analgesics” value in the data set with opiate analgesics is “effectively antagonize overdoses of the opiate analgesics”. Moreover, the “analgetic properties in man” value in data set [4] is “also has analgetic properties in man”. For the same compound, the intrinsic analgesic activity entry in data set [5] is reported as “some analgesic effects by themselves”. In addition, the “prevention of morphine-induced Straub tail” value in data set [3] was “prevent the induction of Straub tail in mice”.

`CN1CCC23c4cccc(O)c4OC2CCCC3C1` (single isomer, unassigned) [Example 3 (-) isomer]: in data set [1] (listed as 3 (-) isomer), the “EFFECT ED50, Oral Anti-PQW” value is on record as 2.1. The “EFFECT ED50, Anti-Straub Tail (s.c.)” value in data set [2] (subcutaneous, mice, vs morphine sulfate 30 mg/kg i.p., listed as 3 (-) isomer) was found to be 0.14. In the data set with Straub tail, the “EFFECT ED50, Oral Straub-Tail” value was above 135.

For `Oc1cccc2c1O[C@H]1CCC[C@H]3CN(CC4CC4)CC[C@@]231` (relative stereo) [Example 5, 3-Cyclopropylmethyl-2,3,4,4aα,5,6,7,7aα-octahydro-1H-benzo[4,5]furo[3,2-e]isoquinolin-9-ol], the “analgesic potency relative to morphine” value in data set [1] (mouse analgesia data) is “several times greater potency than morphine”.

In the case of `C=CCN1CC[C@]23CCCC[C@H]2[C@H]1Cc1ccc(O)cc13` [levallorphan], in the data set with opiate analgesics, the “antagonism of opiate analgesics” value was “effectively antagonize overdoses of the opiate analgesics”. The intrinsic analgesic activity entry in data set [5] is listed as “some analgesic effects by themselves”.

Regarding `COc1cccc2c1O[C@H]1CCC[C@H]3CN(Cc4ccccc4)CC[C@@]231` (relative stereo) [Example 10, 3-Benzyl-9-methoxy-2,3,4,4aα,5,6,7,7aα-octahydro-1H-benzo[4,5]furo[3,2-e]isoquinoline], the “narcotic antagonism” value in data set [2] (mouse anti-Straub tail test) is “pure narcotic antagonists”.

Usually ED50 stands for the dose at which the effect has come halfway, by size or by number of responders. Consider `COc1cccc2c1O[C@H]1CCC[C@H]3CN(CC#N)CC[C@@]231` (relative stereo) [Example 20, 9-Methoxy-2,3,4,4aα,5,6,7,7aα-octahydro-1H-benzo[4,5]furo[3,2-e]isoquinoline-3-acetonitrile], for which the ED50 in data set [2] (Mus musculus, sc, subcutaneous, mice, vs morphine sulfate 30 mg/kg i.p., read-out: EFFECT ED50, Anti-Straub Tail (s.c.)) was found to be 27 mg/kg.

`CN1CC[C@]23c4cccc(O)c4O[C@H]2CCC[C@H]3C1` (relative stereo) [Example 3, 3-Methyl-2,3,4,4aα,5,6,7,7aα-octahydro-1H-benzo[4,5]furo[3,2-e]isoquinolin-9-ol] yielded an ED50 with Straub tail (Mus musculus, 0.4 h) of 135 mg/kg.
